Reference: paper PMC9820559, “Investigation of the Fuzzy Complex between RSV Nucleoprotein and Phosphoprotein to Optimize an Inhibition Assay by Fluorescence Polarization” (International Journal of Molecular Sciences, 2022)
Peptide text beside a SMILES is read from it. * marks the point of attachment. FITC = O=C1OC2(c3ccc(O)cc3Oc3cc(O)ccc32)c2ccc(NC(=S)*)cc21; X1 = Cc1cc(C)n2c1C=C1C=CC(CCC(=O)*)=[N+]1[B-]2(C#N)C#N

Target: T1, RSV N-RNA complex (Human respiratory syncytial virus A, UniProt P03418)
T1 construct: Full-length N was produced by co-expression with the C-terminal domain of RSV P protein in E. coli BL21(DE3); made in house; host or cells: E. coli BL21(DE3), co-transformed with pET-N and pGEX-P(161–241)
Test: biochemical
Type: binding
Conditions: for FP values compared to fluorescein at the same N-RNA concentrations: 200 nM probe, also bound to N-RNA
Procedure: We carried out FP measurements using the fluorescent F11 peptide and N-RNA complex. […] No salt was added to promote high affinity.
We first measured binding of Fn peptides (200 nM) to N-RNA in Tris buffer by FP (Figure 5A,B). […] We fitted the data with ΔFPmax and Kd as parameters.
We therefore measured fluorescein FP in the presence of N-RNA. […] To test if fluorescein binds to the P-binding site on the N-RNA, we carried out a competition experiment with M76 (Figure 6C).
We first performed FP measurements in salt-free Tris pH 8 buffer (Figure 8A). We measured binding curves using 200 nM of fluorescent peptides.
Fluorescence polarization measurements were carried out on a Paradigm Detection Platform (Beckman Coulter, Brea, CA, USA) operating with a microplate reader, a fluorescein detection cartridge (excitation range 485/20 nm, emission range 535/25 nm for both parallel and perpendicular components) and the SpectraMax Pro 6.1 software (Molecular Devices, San Jose, CA, USA). Samples were placed in polystyrene black flat bottom 96-well microplates (Cellstar, Greiner bio-one, Frickenhausen, Germany) with 20 µL final volume in each well. If not stated otherwise, the final concentration of fluorescent ligands was 200 nM. The buffer was either 20 mM MES pH 6.5, salt-free or with 250 mM NaCl, or 20 mM Tris pH 8.0 salt-free or with 100 mM NaCl, supplemented with 0.01% Brij-35. Mixing was done using the corresponding plate reader option. The temperature was set to 20 °C. Data were recorded in top reading mode. Measurements were done in triplicate and after an incubation time of 30 min, if not indicated otherwise. Fluorescence polarization (FP) in mFP units was determined from the parallel (I∥) and perpendicular (I⊥) components of the emitted light according to Equation (4). A grating factor G of 1.2 was determined using 1 nM fluorescein in 1 mM NaOH and assuming a theoretical FP of 27 mFP [48]. Background signal was measured from wells containing only buffer, and the mean value was subtracted from each I∥ and I⊥ component. (4) FP (mP)=1000×(I∥−G∗I⊥)/(I∥+G×I⊥)
We assumed that the measured fluorescence polarization FP is a linear combination of the FP of the fluorescent probe in the absence of N protein (FPmin) and the FP of N-bound fluorescent probe (FPmax), weighted by the molar fraction. The molar fraction x = [P]bound/[P]0 can then be expressed as a ratio of FP differences (Equation (8)). (8) x=(FP−FPmin)/(FPmax−FPmin)=∆FP/∆FPmax
To determine the Kd value of a complex between a fluorescent probe and N protein, a series of samples with constant probe concentration and varying N concentration was measured. FP binding curves were fitted with a single binding site model and a 1:1 stoichiometry.

[1] = apparent Kd, fluorescent molecules 200 nM, Tris pH 8 without salt, calculated assuming FPmax = 500 mFP
[2] = Kd, BCNn peptides 200 nM, Tris pH 8.0, no salt, single site model
[3] = Kd, Fn peptides 200 nM, Tris pH 8.0 without salt, single site binding model
[4] = Kd, Fn peptides 200 nM, Tris pH 8.0 without salt, single site model combined with linear contribution (*)

## Cc1cc(C)n2c1C=C1C=CC(CCC(=O)O)=[N+]1[B-]2(F)F [4,4′ difluoro BODIPY FL 4, 4,4′ difluoro BODIPY FL]
Tris pH 8 without salt
  FP values compared to fluorescein at the same N-RNA concentrations: markedly lower
[1]
  Kd: 870000 ± 140000 nM

## Cc1cc(C)n2c1C=C1C=CC(CCC(=O)N[C@@H](CCC(=O)O)C(=O)N[C@@H](CC(C)C)C(=O)N[C@@H](CCC(=O)O)C(=O)N[C@@H](CC(=O)O)C(=O)N[C@@H](Cc3ccccc3)C(=O)O)=[N+]1[B-]2(C#N)C#N [BCN5E, BCN-ELEDF-OH] (X1-ELEDF-OH)
[2]
  Kd: 9800 ± 900 nM

## Cc1cc(C)n2c1C=C1C=CC(CCC(=O)N[C@@H](CC(C)C)C(=O)N[C@@H](CCC(=O)O)C(=O)N[C@@H](CC(C)C)C(=O)N[C@@H](CCC(=O)O)C(=O)N[C@@H](CC(=O)O)C(=O)N[C@@H](Cc3ccccc3)C(=O)O)=[N+]1[B-]2(C#N)C#N [BCN6E, BCN-LELEDF-OH] (X1-LELEDF-OH)
[2]
  Kd: 2300 ± 200 nM
Kd, BCNn peptides 200 nM, Tris pH 8.0, with salt (100 mM NaCl), (*) saturation not reached
  Kd: 12600 ± 1600 nM

## Cc1cc(C)n2c1C=C1C=CC(CCC(=O)N[C@@H](CC(=O)O)C(=O)N[C@@H](CC(C)C)C(=O)N[C@@H](CCC(=O)O)C(=O)N[C@@H](CC(C)C)C(=O)N[C@@H](CCC(=O)O)C(=O)N[C@@H](CC(=O)O)C(=O)N[C@@H](Cc3ccccc3)C(=O)O)=[N+]1[B-]2(C#N)C#N [BCN7E, BCN-DLELEDF-OH] (X1-DLELEDF-OH)
[2]
  Kd: 2200 ± 200 nM

## Cc1cc(C)n2c1C=C1C=CC(CCC(=O)N[C@@H](CCC(=O)O)C(=O)N[C@@H](CC(=O)O)C(=O)N[C@@H](CC(N)=O)C(=O)N[C@@H](CC(=O)O)C(=O)N[C@@H](CC(C)C)C(=O)N[C@@H](CCC(=O)O)C(=O)N[C@@H](CC(C)C)C(=O)N[C@@H](CCC(=O)O)C(=O)N[C@@H](CC(=O)O)C(=O)N[C@@H](Cc3ccccc3)C(=O)O)=[N+]1[B-]2(C#N)C#N [BCN10EE] (X1-EDNDLELEDF-OH)
[2]
  Kd: 160 ± 30 nM

## Cc1cc(C)n2c1C=C1C=CC(CCC(=O)N[C@@H](CC(=O)O)C(=O)N[C@@H](CO)C(=O)N[C@@H](CC(=O)O)C(=O)N[C@@H](CC(N)=O)C(=O)N[C@@H](CC(=O)O)C(=O)N[C@@H](CC(C)C)C(=O)N[C@@H](CCC(=O)O)C(=O)N[C@@H](CC(C)C)C(=O)N[C@@H](CCC(=O)O)C(=O)N[C@@H](CC(=O)O)C(=O)N[C@@H](Cc3ccccc3)C(=O)O)=[N+]1[B-]2(C#N)C#N [BCN11SE] (X1-DSDNDLELEDF-OH)
[2]
  Kd: 800 nM

## O=C(O)CC[C@H](NC(=S)Nc1ccc2c(c1)C(=O)OC21c2ccc(O)cc2Oc2cc(O)ccc21)C(=O)N[C@@H](CC(=O)O)C(=O)N[C@@H](Cc1ccccc1)C(=O)O [F3, ϕ-EDF-OH] ({FITC}-Glu-Asp-Phe-OH)
[3]
  Kd: 62000 ± 19000 nM

## CC(C)C[C@H](NC(=S)Nc1ccc2c(c1)C(=O)OC21c2ccc(O)cc2Oc2cc(O)ccc21)C(=O)N[C@@H](CCC(=O)O)C(=O)N[C@@H](CC(=O)O)C(=O)N[C@@H](Cc1ccccc1)C(=O)O [F4, ϕ-LEDF-OH] ({FITC}-LEDF-OH)
[3]
  Kd: 35000 ± 4000 nM

## CC(C)C[C@H](NC(=O)[C@H](CCC(=O)O)NC(=O)[C@H](CC(C)C)NC(=O)[C@H](CC(=O)O)NC(=S)Nc1ccc2c(c1)C(=O)OC21c2ccc(O)cc2Oc2cc(O)ccc21)C(=O)N[C@@H](CCC(=O)O)C(=O)N[C@@H](CC(=O)O)C(=O)N[C@@H](Cc1ccccc1)C(=O)O [F7E, ϕ-DLE237LEDF-OH] ({FITC}-DLELEDF-OH)
[3]
  Kd: 2500 ± 300 nM

## CC(C)C[C@H](NC(=O)[C@H](CCC(=O)O)NC(=O)[C@H](CC(C)C)NC(=O)[C@H](CC(=O)O)NC(=O)[C@H](CC(N)=O)NC(=O)[C@H](CC(=O)O)NC(=S)Nc1ccc2c(c1)C(=O)OC21c2ccc(O)cc2Oc2cc(O)ccc21)C(=O)N[C@@H](CCC(=O)O)C(=O)N[C@@H](CC(=O)O)C(=O)N[C@@H](Cc1ccccc1)C(=O)O [F9E, ϕ-DNDLE237LEDF-OH] ({FITC}-DNDLELEDF-OH)
[3]
  Kd: 2200 ± 300 nM

## CC(C)C[C@H](NC(=O)[C@H](CCC(=O)O)NC(=O)[C@H](CC(C)C)NC(=O)[C@H](CC(=O)O)NC(=O)[C@H](CC(N)=O)NC(=O)[C@H](CC(=O)O)NC(=O)[C@H](CCC(=O)O)NC(=O)[C@H](CC(=O)O)NC(=S)Nc1ccc2c(c1)C(=O)OC21c2ccc(O)cc2Oc2cc(O)ccc21)C(=O)N[C@@H](CCC(=O)O)C(=O)N[C@@H](CC(=O)O)C(=O)N[C@@H](Cc1ccccc1)C(=O)O [F11EE, ϕ-DE232DNDLE237LEDF-OH] ({FITC}-DEDNDLELEDF-OH)
Fn peptides 200 nM, Tris pH 8.0 without salt, single site binding model
  ΔFPmax: 114 ± 6 mFP
Fn peptides 200 nM, Tris pH 8.0 without salt, single site model combined with linear contribution (*)
  ΔFPmax: 93 ±13 mFP
[4]
  Kd: 150 nM
Tris pH 8.0 without salt
  increase of affinity relative to F11 by phosphomimetic substitutions: 20 fold

## CC(C)C[C@H](NC(=O)[C@H](CCC(=O)O)NC(=O)[C@H](CC(C)C)NC(=O)[C@H](CC(=O)O)NC(=O)[C@H](CC(N)=O)NC(=O)[C@H](CC(=O)O)NC(=O)[C@H](CO)NC(=O)[C@H](CC(=O)O)NC(=S)Nc1ccc2c(c1)C(=O)OC21c2ccc(O)cc2Oc2cc(O)ccc21)C(=O)N[C@@H](CCC(=O)O)C(=O)N[C@@H](CC(=O)O)C(=O)N[C@@H](Cc1ccccc1)C(=O)O [F11SE, ϕ-DS232DNDLE237LEDF-OH] ({FITC}-DSDNDLELEDF-OH)
[3]
  Kd: < 1000 nM
[4]
  Kd: 620 nM

## O=C(O)c1ccccc1-c1c2ccc(=O)cc-2oc2cc(O)ccc12 [Fluorescein 1, Fluorescein]
[1]
  Kd: 91000 ± 5000 nM

## CCOC(=O)c1ccccc1-c1c2ccc(=O)cc-2oc2cc(O)ccc12 [Fluorescein ethyl ester 3, fluorescein ethyl ester]
[1]
  Kd: 250000 ± 27000 nM

## COC(=O)c1ccccc1-c1c2ccc(=O)cc-2oc2cc(O)ccc12 [Fluorescein methyl ester 2, fluorescein methyl ester]
[1]
  Kd: 200000 ± 8000 nM

## Cc1cc(C)n2c1C=C1C=CC(CCC(=O)O)=[N+]1[B-]2(C#N)C#N [dicyano BODIPY FL 5, 3-(5,5-dicyano-7,9-dimethyl-5H-4λ^4,5λ^4-dipyrrolo[1,2-c:2′,1′-f][1,3,2]diazaborinin-3-yl)propanoic acid]
Tris pH 8 without salt
  FP values compared to fluorescein at the same N-RNA concentrations: markedly lower
